Read-outs that look alike come from different tables or passages of the source. Where a SMILES comes first, the peptide text is derived from it. The star is where a group is joined. Piv = CC(C)(C)C(=O)*
What was measured:
[1] = in vitro; conditions: African green monkey
[2] = tested on: human embryonic lung (HEL) fibroblasts; test: Cytotoxicity, cell morphology (MCC) in HEL cells
[3] = biological target: T1, recombinant SARS-CoV-2 M^pro (Severe acute respiratory syndrome coronavirus 2, UniProt P0DTD1); format: biochemical; conditions: relative to concentration range 0.1–1 µM
T1 construct: The virus enzyme, called 3CLpro or main protease (M^pro), is essential for viral replication; purchased Proteros

[4] = tested on: Vero cells
[5] = tested on: human cytomegalovirus (HCMV) strain AD-169; conditions: read-out: Antiviral Activity (EC50) AD-169 Strain; HEL cells, virus input 100 CCID50
[6] = tested on: human cytomegalovirus (HCMV) strain Davis; conditions: read-out: Antiviral Activity (EC50) Davis Strain; HEL cells, virus input 100 CCID50
[7] = tested on: varicella-zoster virus (VZV) wild-type strain Oka; conditions: read-out: Antiviral Activity (EC50) TK+ VZV Strain OKA; HEL cells, virus input 20 PFU
[8] = tested on: thymidine kinase deficient (TK−) VZV strain 07−1; conditions: read-out: Antiviral Activity (EC50) TK-VZV Strain 07–1; HEL cells, virus input 20 PFU
[9] = tested on: SARS-CoV-2 clinical strain UC-1075; conditions: clinical strain UC-1075, 24 h
[10] = tested on: SARS-CoV-2 clinical strain UC-1074; conditions: for EC50: clinical strain UC-1074, 24 h; for activity against SARS-CoV-2 (in words): Vero cells, strains UC-1074 and UC-1075
[11] = tested on: human cytomegalovirus (HCMV) strain Davis; test: microbe, parasite or virus in culture; conditions: Human betaherpesvirus 5, HEL, read-out: Antiviral Activity (EC50) Davis Strain
[12] = tested on: human cytomegalovirus (HCMV) strain AD-169; test: microbe, parasite or virus in culture; conditions: Human betaherpesvirus 5, AD169, HEL, read-out: Antiviral Activity (EC50) AD-169 Strain
[13] = Cytostatic activity, cell growth (CC50) in HEL cells; conditions: human, HEL 299 human embryonic lung fibroblasts
[14] = tested on: SARS-CoV-2; conditions: read-out: EC50 (reported value); cited from earlier work
[15] = tested on: human embryonic lung (HEL) fibroblasts; test: Cytostatic activity, cell growth (CC50) in HEL cells; conditions: read-out: Cytotoxicity Cell Growth (CC50); HEL cells, Table 3 (VZV tests)
[16] = tested on: varicella-zoster virus (VZV) wild-type strain Oka; test: microbe, parasite or virus in culture; conditions: Human alphaherpesvirus 3, HEL, read-out: Antiviral Activity (EC50) TK+ VZV Strain OKA
[17] = tested on: SARS-CoV-2 clinical strain UC-1074; test: microbe, parasite or virus in culture; conditions: Severe acute respiratory syndrome coronavirus 2, UC1074, Vero, 120 h, read-out: Antiviral Activity (EC50) UC-1074
[18] = tested on: SARS-CoV-2 clinical strain UC-1075; test: microbe, parasite or virus in culture; conditions: Severe acute respiratory syndrome coronavirus 2, UC1075, Vero, 120 h, read-out: Antiviral Activity (EC50) UC-1075

| SMILES | CC50 [1] [µM] | Cytotoxicity Cell Morphology (MCC) ([2]; Table 2 (HCMV tests)) [µM] | Cytotoxicity Cell Morphology (MCC) ([2]; Table 3 (VZV tests)) [µM] | Inhibition [3] [%] | Cytotoxicity Cell Morphology (MCC) ([4]; Vero cells) [µM] | EC50 [5] [µM] | EC50 [6] [µM] | EC50 [7] [µM] | EC50 [8] [µM] | EC50 [9] [µM] | EC50 [10] [µM] | other results |
| --- | --- | --- | --- | --- | --- | --- | --- | --- | --- | --- | --- | --- |
| CNC(=O)[C@@H](NC(=O)[C@H](CC(C)C)NC(=O)[C@@H](NC(=O)CNC(C)=O)C(C)C)C(C)C [Peptide 6, Ac-GVLV-NHCH3] (Ac-GVLV-NHMe) | 77.4 ± 0.7 | ≥20 | 100 | 25.0 ± 0.5 | 100 | > 4 | > 20 | > 20 | > 20 | > 20 | ≥ 20 |  |
| Nc1nc(O)c2ncn(COC(CO)CO)c2n1 [Ganciclovir] |  | ≥394 |  |  |  |  |  |  |  |  |  | EC50 [11]: 1.18 µM; EC50 [12]: 2.56 ± 0.23 µM; CC50 at 3 days [13]: 350 µM |
| CNC(=O)[C@H](CCC(N)=O)NC(=O)[C@@H](NC(=O)[C@H](CC(C)C)NC(=O)[C@@H](NC(=O)CNC(C)=O)C(C)C)C(C)C [Peptide 5, Ac-GVLVQ-NHCH3] (Ac-GVLVQ-NHMe) | 75 ± 2.2 | ≥100 | >100 | 27.0 ± 1.1 | 100 | > 20 | > 100 | 59.8 | > 100 | > 20 | > 20 | activity against SARS-CoV-2 (in words) [10]: negligible activity |
| Cc1cc(C(=O)NC(C)C(=O)NC(C(=O)NC(CC(C)C)C(=O)NC(C=CC(=O)OCc2ccccc2)CC2CCNC2=O)C(C)C)no1 (stereo not shown) [Peptide N3] |  |  |  |  |  |  |  |  |  |  |  | EC50 [14]: 16.8 ± 1.7 µM |
| CNC(=O)CNC(=O)[C@@H]1CCCN1C(=O)[C@H](CCC(N)=O)NC(=O)[C@@H](NC(=O)[C@H](CC(C)C)NC(=O)[C@@H](NC(=O)CNC(=O)CNC(C)=O)C(C)C)C(C)C [Peptide 3] (Ac-GGVLVQPG-NHMe) | 81.8 ± 2.1 | ≥20 | >100 | 27.4 ± 1.1 | 100 | > 20 | > 100 | 58.1 | 81.1 | > 20 | > 20 | activity against SARS-CoV-2 (in words) [10]: negligible activity |
| CC(=O)NCC(=O)NCC(=O)N[C@H](C(=O)N[C@@H](CC(C)C)C(=O)N[C@H](C(=O)N[C@@H](CCC(N)=O)C(=O)N1CCC[C@H]1C(=O)NCC(N)=O)C(C)C)C(C)C [Peptide 2] (Ac-GGVLVQPG-NH2) | 83 ± 17 | ≥20 | >100 | 27.1 ± 0.5 | 100 | > 20 | > 20 | 50.1 | 48.4 | > 20 |  |  |
| O=c1[nH]c(=O)n([C@H]2C[C@H](O)[C@@H](CO)O2)cc1/C=C/Br [Birivudine, reference compound] |  |  | >300.3 |  |  |  |  | 0.23 ± 0.04 | 2.13 |  |  | CC50 [15]: > 300 µM |
| CNC(=O)CNC(=O)[C@@H]1CCCN1C(=O)[C@H](CCC(N)=O)NC(=O)[C@@H](NC(=O)[C@H](CC(C)C)NC(=O)[C@@H](NC(=O)CNC(=O)CNC(=O)C(C)(C)C)C(C)C)C(C)C [Peptide 4] (Piv-GGVLVQPG-NHMe) | 74.9 ± 4.9 | 100 | ≥100 | 26.2 ± 0.3 | 100 | > 20 | 100 | 78.2 | > 100 | > 20 | ≥ 20 |  |
| CC(C)C[C@H](NC(=O)[C@@H](NC(=O)CNC(=O)CN)C(C)C)C(=O)N[C@H](C(=O)N[C@@H](CCC(N)=O)C(=O)N1CCC[C@H]1C(=O)NCC(=O)O)C(C)C [AT1001 (1), Larazotide acetate, reference compound] (H-GGVLVQPG-OH) | 82.5 ± 6.2 | ≥100 | ≥100 | 27.7 ± 0.2 |  | > 20 | > 20 | 44.1 | 59.1 | > 20 | > 20 | Cytotoxicity Cell Morphology (MCC) [4]: 100 µM |
| Nc1nc2c(ncn2COCCO)c(=O)[nH]1 [Aciclovir] |  |  |  |  |  |  |  |  |  |  |  | EC50 [16]: 8.39 µM |
| CCC(CC)COC(=O)[C@H](C)N[P@](=O)(OC[C@H]1O[C@@](C#N)(c2ccc3c(N)ncnn23)[C@H](O)[C@@H]1O)Oc1ccccc1 [Remdesivir, reference compound] | 70.6 ± 4.9 |  |  |  | 100 |  |  |  |  |  |  | EC50 [17]: 0.89 ± 0.44 µM; EC50 [18]: 1.06 ± 0.44 µM |
| Nc1ccn(C[C@@H](CO)OCP(=O)(O)O)c(=O)n1 [Cidofovir] |  | ≥317 |  |  |  |  |  |  |  |  |  | EC50 [11]: 0.67 ± 0.49 µM; EC50 [12]: 1.27 ± 0.18 µM; CC50 at 3 days [13]: 159 ± 76.5 µM |

— paper PMC8431481, “Peptide Derivatives of the Zonulin Inhibitor Larazotide (AT1001) as Potential Anti SARS-CoV-2: Molecular Modelling, Synthesis and Bioactivity Evaluation” (International Journal of Molecular Sciences, 2021)
